Test results as given in patent US20080311126A1, “Antisense Oligonucleotides Directed to Ribonucleotide Reducatase R2 and Uses Thereof in Combination Therapies for the Treatment of Cancer” (Genesense Technologies, Inc, priority 2004, published 2008).
Oligonucleotides are written 5' to 3', each unit as a sugar letter and its base; * is a phosphorothioate linkage, no mark a phosphodiester; rarer units and linkages stand in square brackets, end groups in braces. Plain capitals give the bases only. d = 2'-deoxy (DNA)

Tests used:
Type in all cases: cell-based, human
[1] = test system: Hela S3 cells; assay: Relative colony forming efficiency, lipofectin +/- oligonucleotide 4 hours; details: Hela S3 cervix carcinoma cells; averages of 2-8 determinations
Procedure: Colony forming efficiency was determined using standard protocols. Briefly, the cells were cultured for 24 hours at 37° C. in growth medium with 10% fetal bovine serum. The cells were washed in 5 ml phosphate buffered saline, pH 7.2, once prior to lipofectin +/−oligonucleotide treatment.
The test oligonucleotides were added to cell cultures in the presence of 2.5 μg of DOTMA/DOPE (Lipofectin; Life Technologies, Inc.) for four hours. The oligonucleotide was tested at 0.2 μM unless otherwise indicated. Controls were the cultures treated with lipofectin but without the oligonucleotide. After 4 hours the medium containing the oligonucleotide was removed and washed with 5 ml of growth medium. The cells were then cultured in growth medium containing 10% fetal bovine serum for seven to ten days. Surviving cells were visualized by methylene blue staining, and colonies were scored. In some experiments cell aliquots were removed from the culture and viability was determined using the trypan blue exclusion test. Results were analyzed as percent of surviving cells compared to control cells.
AS-II-336-20 was tested for the ability to inhibit the proliferation of human tumour cells (Hela). Hela S3 cells (American Type Culture Collection, Rockville, Md., ATCC), and a Hela cell line (Hela 1 mM) previously selected for resistance to the antitumour agent, hydroxyurea, were tested (see results in Table 11). Two experiments were undertaken with Hela S3 cells. […] The same experiment was repeated with the Hela 1 mM cell line and with varying concentrations of the antisense construct AS-II-336-20 (see results in Table 11) with similar results, […] was an effective concentration for inhibiting colony formation.
To test the antisense effects of many of these sequences as phosphorthioate deoxyribonucleotides, they were examined in relative colony forming experiments conducted as described in Example 16 with a series of human tumour cell lines. The results (shown as % inhibition of colony forming ability) obtained with cancer cells derived from the bladder, breast, lung, colon, pancreas, prostate, liver and cervix, are shown in Table 13. The specific cell lines employed are as follows:
T24=bladder cell carcinoma HCT116=colon cell carcinoma A549=lung cell carcinoma MDA-MB-231=breast cell adenocarcinoma […]=pancreatic cell carcinoma PC-3=prostrate cell adenocarcinoma HepG2=hepatocellular carcinoma HeLaS3=cells isolated from a carcinoma of the cervix T-47D=breast ductal carcinoma H596=lung adenosquamous carcinoma cells Colo320=colon cell adenocarcinoma

[2] = test system: HCT116 colon cell carcinoma; assay: Relative colony forming efficiency (Example 17, Table 13); details: averages of 2-8 determinations
Outline: (§1)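 Antisense phosphorothioates are tested at 0.2 μM unless stated, transfected with DOTMA/DOPE (2.5 μg) for four hours. Colony counts after methylene blue staining give percent inhibition versus vehicle-lipid controls.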

[3] = test system: A549 lung cell carcinoma; assay: as above; details: averages of 2-8 determinations
Outline: as §1

[4] = test system: MDA-MB-231 breast cell adenocarcinoma; assay: as above; details: averages of 2-8 determinations
Outline: as §1

[5] = test system: HepG2 hepatocellular carcinoma; assay: as above; details: averages of 2-8 determinations
Outline: as §1

[6] = test system: PC-3 prostrate cell adenocarcinoma; assay: as above; details: averages of 2-8 determinations
Outline: as §1

[7] = test system: T24 bladder cell carcinoma; assay: as above; details: averages of 2-8 determinations
Outline: as §1

[8] = test system: MDA PaCa-2 pancreatic cell carcinoma; assay: as above; details: MIA PaCa-2 pancreatic cell carcinoma, averages of 2-8 determinations
Outline: as §1

[9] = test system: T-47D breast ductal carcinoma; assay: as above; details: averages of 2-8 determinations
Outline: as §1

Sequence | Reduced relative colony forming efficiency, Hela S3 (% inhibition of colony forming ability) [1] | Reduced relative colony forming efficiency, HCT116 (% inhibition of colony forming ability) [2] | Reduced relative colony forming efficiency, A549 (% inhibition of colony forming ability) [3] | Reduced relative colony forming efficiency, MDA-MB-231 (% inhibition of colony forming ability) [4] | Reduced relative colony forming efficiency, MDA-MB-231 (% inhibition of colony forming ability) ([4]; listed as AS-II-75-20 *) | Reduced relative colony forming efficiency, HepG2 (% inhibition of colony forming ability) [5] | Reduced relative colony forming efficiency, HepG2 (% inhibition of colony forming ability) ([5]; listed as AS-II-75-20 *) | Reduced relative colony forming efficiency, PC-3 (% inhibition of colony forming ability) [6] | Reduced relative colony forming efficiency, PC-3 (% inhibition of colony forming ability) ([6]; listed as AS-II-75-20 *) | Reduced relative colony forming efficiency, T24 (% inhibition of colony forming ability) [7] | Reduced relative colony forming efficiency, T24 (% inhibition of colony forming ability) ([7]; listed as AS-II-75-20 *) | Reduced relative colony forming efficiency, MIA PaCa-2 (% inhibition of colony forming ability) [8] | Reduced relative colony forming efficiency, MIA PaCa-2 (% inhibition of colony forming ability) ([8]; listed as AS-II-75-20 *) | Reduced relative colony forming efficiency, T-47D (% inhibition of colony forming ability) [9]
CGCGCGCTCCCGGCCCTTCC (listed as DNA, chemistry not fully specified) [AS-II-75-20] | 93.01% | 44.4% | 60.08% | 95.14% | 49.3% | 97.89% | 35.4% | 83.46% | 68.25% | 95.83% | 73.42% | 52.07% | 97.38% | 32.95%
CGCGCTCCCGGCCC (antisense dC*dG*dC*dG*dC*dT*dC*dC*dC*dG*dG*dC*dC*dC) [AS-II-79-14] | 28.64% | 45.56% | 79.17% | 48.6% | – | 70.81% | – | 85.32% | – | 38.4% | – | 38.89% | – | 70.81%
GTCTCTCCTCCGATGGTTTG [AS-II-1040-20] | 71.87% | 70.08% | 85.82% | – | – | 77.78% | – | 40.08% | – | 59.49% | – | 43.52% | – | 64.76%
TCCTCGGCGGTCCAAA (antisense dT*dC*dC*dT*dC*dG*dG*dC*dG*dG*dT*dC*dC*dA*dA*dA) [AS-II-496-16] | 52.21% | 70.85% | 74.45% | 45.8% | – | 54.8% | – | 88.84% | – | 78.48% | – | – | – | 10.79%
TTCTCTTACTCTCTCCTCCG (antisense dT*dT*dC*dT*dC*dT*dT*dA*dC*dT*dC*dT*dC*dT*dC*dC*dT*dC*dC*dG) [AS-II-1048-20] | 39.19% | 42.63% | 65.67% | 66.88% | – | 77.56% | – | 84.38% | – | 40.32% | – | 33.4% | – | –
CCCAGTTCCAGCATAAGTCT (antisense dC*dC*dC*dA*dG*dT*dT*dC*dC*dA*dG*dC*dA*dT*dA*dA*dG*dT*dC*dT) [AS-II-1182-20] | 90.61% | 88.13% | 80.06% | – | – | 92.23% | – | 92.76% | – | 94.51% | – | 84.72% | – | 92.41%
ACCCCTCACTCCAGCAGCCT (antisense dA*dC*dC*dC*dC*dT*dC*dA*dC*dT*dC*dC*dA*dG*dC*dA*dG*dC*dC*dT) [AS-II-110-20] | 53.98% | 71.69% | 89.38% | 90.92% | – | 97.14% | – | 92.06% | – | 87.78% | – | 47.51% | – | –
CGGCGGCGTGTTCTCCTTGT (antisense dC*dG*dG*dC*dG*dG*dC*dG*dT*dG*dT*dT*dC*dT*dC*dC*dT*dT*dG*dT) [AS-II-280-20] | 41.79% | 69.42% | 61.81% | 79.14% | – | 97.14% | – | 77.51% | – | 90.56% | – | 53.94% | – | –
TCTGCCTTCTTCTTGACACA (antisense dT*dC*dT*dG*dC*dC*dT*dT*dC*dT*dT*dC*dT*dT*dG*dA*dC*dA*dC*dA) [AS-II-798-20] | 56.42% | 64.46% | 70.49% | 83.92% | – | 89.46% | – | 83.21% | – | 84.72% | – | 34.65% | – | –
GCTCCCACATATGAAAACTC (antisense dG*dC*dT*dC*dC*dC*dA*dC*dA*dT*dA*dT*dG*dA*dA*dA*dA*dC*dT*dC) [AS-II-2229A-20] | 63.15% | 93.01% | 69.72% | – | – | 73.26% | – | 89.58% | – | 50.34% | – | 33.61% | – | 58.82%
